Biological target: SARS-CoV M^pro (Severe acute respiratory syndrome coronavirus, UniProt P0C6X7)
Format: biochemical

Dabcyl-KTSAVLQ↓SGFRKME-Edans amide
apparent k cat/K m: 2359 M^−1·19 s^−1 | k cat/K m: 7863 M⁻¹ s⁻¹ | K m (pH 7.3): 24.5 µM
